Key:
Assay in all cases: Reduction of azo substrates over 24 hours at 35° C., microtitration plate (Example 1)
Format in all cases: cell-based
[1] = system: Candida albicans; design: key to RED (substrate reduced or not): RED indicates whether the substrate is reduced (Y) or not (N); RED indicates whether the substrate is reduced (Y) or not (N); key to Co (growth, absorbance at 660 nm) / Decol (substrate decolourized, decrease in absorbance) / Fluo (fluorescence multiplied by 2 relative to substrate-free control): The symbol “+” means good growth/decolourization/significant increase in fluorescence; The symbol “+/−” means difficult growth; The symbol “−” means that there is no growth/decolourization/significant increase in fluorescence; conditions: substrate 35 mg/l
Method: (§1) Reduction of the “azo” function of the substrates listed in Table I by the species listed in Table II, each species being represented by a strain, is tested in a microtitration plate.
(§2) The reaction medium consists of: • Trypcase soya broth • Substrate 35 mg/l • 0.5 MacFarland inoculum
(§3) The reduction of the substrate and the growth of the microorganisms are monitored using an Infinite® M200 Tecan microplate reader at 35° C. over 24 hours.
(§4) The growth is monitored by the absorbance at 660 nm and the reduction of the substrates by absorbance and fluorescence at the specific wavelengths indicated in Table III.
(§5) The substrate is considered as reduced by the microorganisms when the substrate is decolourized (monitored by the decrease in absorbance) (Decol) and/or when the fluorescence of the substrate is multiplied by 2 relative to the base fluorescence of a substrate-free control (Fluo). The growth is indicated by Co. The symbol “+” means good growth/decolourization/significant increase in fluorescence. The symbol “+/−” means difficult growth. The symbol “−” means that there is no growth/decolourization/significant increase in fluorescence. RED indicates whether the substrate is reduced (Y) or not (N).

[2] = system: Pseudomonas aeruginosa; design: key to RED (substrate reduced or not): RED indicates whether the substrate is reduced (Y) or not (N); RED indicates whether the substrate is reduced (Y) or not (N); key to Co (growth, absorbance at 660 nm) / Decol (substrate decolourized, decrease in absorbance) / Fluo (fluorescence multiplied by 2 relative to substrate-free control): The symbol “+” means good growth/decolourization/significant increase in fluorescence; The symbol “+/−” means difficult growth; The symbol “−” means that there is no growth/decolourization/significant increase in fluorescence; conditions: P. aeruginosa, substrate 35 mg/l
Method: as §1, §2, §3, §4, §5

[3] = system: Staphylococcus epidermidis; design: key to RED (substrate reduced or not): RED indicates whether the substrate is reduced (Y) or not (N); RED indicates whether the substrate is reduced (Y) or not (N); key to Co (growth, absorbance at 660 nm) / Decol (substrate decolourized, decrease in absorbance) / Fluo (fluorescence multiplied by 2 relative to substrate-free control): The symbol “+” means good growth/decolourization/significant increase in fluorescence; The symbol “+/−” means difficult growth; The symbol “−” means that there is no growth/decolourization/significant increase in fluorescence; conditions: S. epidermidis, substrate 35 mg/l
Method: as §1, §2, §3, §4, §5

[4] = system: Kocuria rosea; design: key to RED (substrate reduced or not): RED indicates whether the substrate is reduced (Y) or not (N); RED indicates whether the substrate is reduced (Y) or not (N); key to Co (growth, absorbance at 660 nm) / Decol (substrate decolourized, decrease in absorbance) / Fluo (fluorescence multiplied by 2 relative to substrate-free control): The symbol “+” means good growth/decolourization/significant increase in fluorescence; The symbol “+/−” means difficult growth; The symbol “−” means that there is no growth/decolourization/significant increase in fluorescence; conditions: K. rosea, substrate 35 mg/l
Method: as §1, §2, §3, §4, §5

[5] = system: Staphylococcus aureus; design: key to RED (substrate reduced or not): RED indicates whether the substrate is reduced (Y) or not (N); RED indicates whether the substrate is reduced (Y) or not (N); key to Co (growth, absorbance at 660 nm) / Decol (substrate decolourized, decrease in absorbance) / Fluo (fluorescence multiplied by 2 relative to substrate-free control): The symbol “+” means good growth/decolourization/significant increase in fluorescence; The symbol “+/−” means difficult growth; The symbol “−” means that there is no growth/decolourization/significant increase in fluorescence; conditions: S. aureus, substrate 35 mg/l
Method: as §1, §2, §3, §4, §5

[6] = system: Geotrichum candidum; design: key to RED (substrate reduced or not): RED indicates whether the substrate is reduced (Y) or not (N); RED indicates whether the substrate is reduced (Y) or not (N); key to Co (growth, absorbance at 660 nm) / Decol (substrate decolourized, decrease in absorbance) / Fluo (fluorescence multiplied by 2 relative to substrate-free control): The symbol “+” means good growth/decolourization/significant increase in fluorescence; The symbol “+/−” means difficult growth; The symbol “−” means that there is no growth/decolourization/significant increase in fluorescence; conditions: G. candidum, substrate 35 mg/l
Method: as §1, §2, §3, §4, §5

[7] = system: Escherichia coli; design: key to RED (substrate reduced or not): RED indicates whether the substrate is reduced (Y) or not (N); RED indicates whether the substrate is reduced (Y) or not (N); key to Co (growth, absorbance at 660 nm) / Decol (substrate decolourized, decrease in absorbance) / Fluo (fluorescence multiplied by 2 relative to substrate-free control): The symbol “+” means good growth/decolourization/significant increase in fluorescence; The symbol “+/−” means difficult growth; The symbol “−” means that there is no growth/decolourization/significant increase in fluorescence; conditions: E. coli, substrate 35 mg/l
Method: as §1, §2, §3, §4, §5

[8] = system: Cronobacter muytjensii; design: key to RED (substrate reduced or not): RED indicates whether the substrate is reduced (Y) or not (N); RED indicates whether the substrate is reduced (Y) or not (N); key to Co (growth, absorbance at 660 nm) / Decol (substrate decolourized, decrease in absorbance) / Fluo (fluorescence multiplied by 2 relative to substrate-free control): The symbol “+” means good growth/decolourization/significant increase in fluorescence; The symbol “+/−” means difficult growth; The symbol “−” means that there is no growth/decolourization/significant increase in fluorescence; conditions: E. muytjensii, substrate 35 mg/l
Method: as §1, §2, §3, §4, §5

[9] = system: Acinetobacter baumanii; design: key to RED (substrate reduced or not): RED indicates whether the substrate is reduced (Y) or not (N); RED indicates whether the substrate is reduced (Y) or not (N); key to Decol (substrate decolourized, decrease in absorbance) / Fluo (fluorescence multiplied by 2 relative to substrate-free control) / Co (growth, absorbance at 660 nm): The symbol “+” means good growth/decolourization/significant increase in fluorescence; The symbol “+/−” means difficult growth; The symbol “−” means that there is no growth/decolourization/significant increase in fluorescence; conditions: A. baumannii, substrate 35 mg/l
Method: as §1, §2, §3, §4, §5

[10] = system: Enterococcus faecalis; design: key to RED (substrate reduced or not): RED indicates whether the substrate is reduced (Y) or not (N); RED indicates whether the substrate is reduced (Y) or not (N); key to Decol (substrate decolourized, decrease in absorbance) / Fluo (fluorescence multiplied by 2 relative to substrate-free control) / Co (growth, absorbance at 660 nm): The symbol “+” means good growth/decolourization/significant increase in fluorescence; The symbol “+/−” means difficult growth; The symbol “−” means that there is no growth/decolourization/significant increase in fluorescence; conditions: E. faecalis, substrate 35 mg/l
Method: as §1, §2, §3, §4, §5

## O=C(O)c1ccccc1/N=N/c1cc(Cl)c(O)c(Cl)c1 [2-(4-Hydroxy-3,5-dichlorophenylazo)benzoic acid]
[1]
  Co (growth, absorbance at 660 nm): +
  Decol (substrate decolourized, decrease in absorbance): −
  Fluo (fluorescence multiplied by 2 relative to substrate-free control): −
  RED (substrate reduced or not): N
[2]
  Co (growth, absorbance at 660 nm): +
  Decol (substrate decolourized, decrease in absorbance): −
  Fluo (fluorescence multiplied by 2 relative to substrate-free control): +
  RED (substrate reduced or not): Y
[3]
  Co (growth, absorbance at 660 nm): +
  Decol (substrate decolourized, decrease in absorbance): +
  Fluo (fluorescence multiplied by 2 relative to substrate-free control): +
  RED (substrate reduced or not): Y
[4]
  Co (growth, absorbance at 660 nm): −
  Decol (substrate decolourized, decrease in absorbance): −
  Fluo (fluorescence multiplied by 2 relative to substrate-free control): −
[5]
  Co (growth, absorbance at 660 nm): +
  Decol (substrate decolourized, decrease in absorbance): +
  Fluo (fluorescence multiplied by 2 relative to substrate-free control): +
  RED (substrate reduced or not): Y
[6]
  Co (growth, absorbance at 660 nm): +
  Decol (substrate decolourized, decrease in absorbance): +
  Fluo (fluorescence multiplied by 2 relative to substrate-free control): +
  RED (substrate reduced or not): Y
[7]
  Co (growth, absorbance at 660 nm): +
  Decol (substrate decolourized, decrease in absorbance): +
  Fluo (fluorescence multiplied by 2 relative to substrate-free control): +
  RED (substrate reduced or not): Y
[8]
  Co (growth, absorbance at 660 nm): +
  Decol (substrate decolourized, decrease in absorbance): +
  Fluo (fluorescence multiplied by 2 relative to substrate-free control): +
  RED (substrate reduced or not): Y
[9]
  Co (growth, absorbance at 660 nm): +
  Decol (substrate decolourized, decrease in absorbance): +
  Fluo (fluorescence multiplied by 2 relative to substrate-free control): +
  RED (substrate reduced or not): Y
[10]
  Co (growth, absorbance at 660 nm): +
  Decol (substrate decolourized, decrease in absorbance): +
  Fluo (fluorescence multiplied by 2 relative to substrate-free control): +
  RED (substrate reduced or not): Y

## CC(=O)Oc1ccc(/N=N/c2ccccc2C(=O)O)cc1 [2-(4-acetoxyphenylazo)benzoic acid, 2-(4-Acetoxyphenylazo)benzoic acid]
[1]
  Co (growth, absorbance at 660 nm): +
  Decol (substrate decolourized, decrease in absorbance): −
  Fluo (fluorescence multiplied by 2 relative to substrate-free control): −
  RED (substrate reduced or not): N
[2]
  Co (growth, absorbance at 660 nm): +
  Decol (substrate decolourized, decrease in absorbance): −
  Fluo (fluorescence multiplied by 2 relative to substrate-free control): −
  RED (substrate reduced or not): N
[3]
  Co (growth, absorbance at 660 nm): +
  Decol (substrate decolourized, decrease in absorbance): +
  Fluo (fluorescence multiplied by 2 relative to substrate-free control): +
  RED (substrate reduced or not): Y
[4]
  Co (growth, absorbance at 660 nm): −
  Decol (substrate decolourized, decrease in absorbance): −
  Fluo (fluorescence multiplied by 2 relative to substrate-free control): −
[5]
  Co (growth, absorbance at 660 nm): +
  Decol (substrate decolourized, decrease in absorbance): +
  Fluo (fluorescence multiplied by 2 relative to substrate-free control): +
  RED (substrate reduced or not): Y
[6]
  Co (growth, absorbance at 660 nm): +
  Decol (substrate decolourized, decrease in absorbance): +
  Fluo (fluorescence multiplied by 2 relative to substrate-free control): +
  RED (substrate reduced or not): Y
[7]
  Co (growth, absorbance at 660 nm): +
  Decol (substrate decolourized, decrease in absorbance): +
  Fluo (fluorescence multiplied by 2 relative to substrate-free control): +
  RED (substrate reduced or not): Y
[8]
  Co (growth, absorbance at 660 nm): +
  Decol (substrate decolourized, decrease in absorbance): +
  Fluo (fluorescence multiplied by 2 relative to substrate-free control): +
  RED (substrate reduced or not): Y
[9]
  Co (growth, absorbance at 660 nm): +
  Decol (substrate decolourized, decrease in absorbance): +
  Fluo (fluorescence multiplied by 2 relative to substrate-free control): +
  RED (substrate reduced or not): Y
[10]
  Co (growth, absorbance at 660 nm): +
  Decol (substrate decolourized, decrease in absorbance): +
  Fluo (fluorescence multiplied by 2 relative to substrate-free control): +
  RED (substrate reduced or not): Y

Reference: US20150125889A1, “IN VITRO DETECTION OF MICROORGANISMS WITH AZOREDUCTASE ACTIVITY” (BIOMÉRIEUX, priority 2012, published 2015)
